From PubChem BioAssay AID220 (DTP/NCI, 2004) come the findings set out here.

This test deals with CD8F1 mice, subcutaneous mammary adenocarcinoma, T/C%. As to the kind of experiment: NCI In Vivo Anticancer Drug Screen. Data for tumor model Mammary Adenocarcinoma CD8F1 (subcutaneous) in CD8F1. The settings on record: higher = larger tumour. The procedure, abridged: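 Tumor-bearing mice, transplantable model; readout survival or tumor size; value = treated (T) / vehicle control (C).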

The mark [1] stands for this setting: endpoint: median tumor weight (est.), dose: 12.5 mg/kg/injection, schedule: Q07DX005 (ip), vehicle: Klucel (hydroxypropylcellulose) (HPC).
The mark [2] stands for this setting: endpoint: median tumor weight (est.), dose: 25.0 mg/kg/injection, schedule: Q07DX005 (ip), vehicle: Klucel (hydroxypropylcellulose) (HPC).
The mark [3] stands for this setting: endpoint: median tumor weight (est.), dose: 100.0 mg/kg/injection, schedule: Q07DX005 (ip), vehicle: Klucel (hydroxypropylcellulose) (HPC).
The mark [4] stands for this setting: endpoint: median tumor weight (est.), dose: 400.0 mg/kg/injection, schedule: Q07DX005 (ip), vehicle: Klucel (hydroxypropylcellulose) (HPC).
The mark [5] stands for this setting: endpoint: median tumor weight change, dose: 250.0 mg/kg/injection, schedule: Q01DX001 (ip), vehicle: saline with Tween-80.
Where [6] appears, read: endpoint: median tumor weight (est.), dose: 12.5 mg/kg/injection, schedule: Q07DX005 (ip), vehicle: saline with Tween-80.
Where [7] appears, read: endpoint: median tumor weight (est.), dose: 25.0 mg/kg/injection, schedule: Q07DX005 (ip), vehicle: saline with Tween-80.
Setting [8] is: endpoint: median tumor weight (est.), dose: 50.0 mg/kg/injection, schedule: Q07DX005 (ip), vehicle: saline with Tween-80.
Setting [9] is: endpoint: median tumor weight (est.), dose: 100.0 mg/kg/injection, schedule: Q07DX005 (ip), vehicle: saline with Tween-80.
[10] abbreviates: endpoint: median tumor weight (est.), dose: 200.0 mg/kg/injection, schedule: Q07DX005 (ip), vehicle: saline with Tween-80.

SMILES strings stand for the structures. Values joined by “and” are separate entries in the source; they are usually repeats but may differ in a detail not shown here. Equal values may be shown once. Inconclusive results are not listed.

In the case of `O=C(O)CC(=O)O.[NH-]CC[NH-].[Pt+2]`, the T/C is 14 % of control (endpoint: median tumor weight (est.), dose: 14.06 mg/kg/injection, schedule: Q07DX005 (ip), vehicle: dextrose); 25 % of control (endpoint: median tumor weight (est.), dose: 28.13 mg/kg/injection, schedule: Q07DX005 (ip), vehicle: dextrose); 14 % of control (endpoint: median tumor weight (est.), dose: 56.25 mg/kg/injection, schedule: Q07DX005 (ip), vehicle: dextrose); 13 % of control (endpoint: median tumor weight (est.), dose: 112.5 mg/kg/injection, schedule: Q07DX005 (ip), vehicle: dextrose); 3 % of control (endpoint: median tumor weight (est.), dose: 225.0 mg/kg/injection, schedule: Q07DX005 (ip), vehicle: dextrose).
Consider `Nc1ccccc1N`, for which the T/C was 117 % of control under setting [1], 155 % of control under setting [2], 122 % of control under setting [3] and 35 % of control under setting [4].
Regarding `CN1CCN(c2ccc([N+](=O)[O-])c3no[n+]([O-])c23)CC1`, the T/C runs as follows: (endpoint: median tumor weight (est.), dose: 5.0 mg/kg/injection, schedule: Q07DX005 (ip), vehicle: saline with Tween-80) 95 % of control; (endpoint: median tumor weight (est.), dose: 10.0 mg/kg/injection, schedule: Q07DX005 (ip), vehicle: saline with Tween-80) 115 % of control; (endpoint: median tumor weight (est.), dose: 20.0 mg/kg/injection, schedule: Q07DX005 (ip), vehicle: saline with Tween-80) 75 % of control.
`CCC1(O)CC2CN(CCc3c([nH]c4ccccc34)C(C(=O)OC)(c3cc4c(cc3OC)N(C)C3C(O)(C(=O)NCCSSCCNC(=O)C5(O)C(O)C6(CC)C=CCN7CCC8(c9cc(C%10(C(=O)OC)CC%11CN(CCc%12c%10[nH]c%10ccccc%12%10)CC(O)(CC)C%11)c(OC)cc9N(C)C58)C76)C(O)C5(CC)C=CCN6CCC43C65)C2)C1` (configuration not stated): for the setting “endpoint: median tumor weight change, dose: 1.9 mg/kg/injection, schedule: Q01DX001 (ip), vehicle: saline”, the T/C was 45 % of control.
Consider `CN(C)c1ccc(C(=C2C=CC(=[N+](C)C)C=C2)c2ccc(N(C)C)cc2)cc1` (tested in a mixture with another compound), for which the T/C by setting is: (endpoint: median tumor weight change, dose: 2.5 mg/kg/injection, schedule: Q01DX001 (ip), vehicle: saline with Tween-80) 75 % of control; (endpoint: median tumor weight change, dose: 5.0 mg/kg/injection, schedule: Q01DX001 (ip), vehicle: saline with Tween-80) 77 % of control.
As for `C[C@@H]1C[C@@H]([C@H](O)CC2CC(=O)NC(=O)C2)C(=O)[C@@H](C)C1`, the T/C runs as follows: (endpoint: median tumor weight change, dose: 62.5 mg/kg/injection, schedule: Q01DX001 (ip), vehicle: suspension in saline) 57 % of control; (endpoint: median tumor weight change, dose: 125.0 mg/kg/injection, schedule: Q01DX001 (ip), vehicle: suspension in saline) 72 % of control; (endpoint: median tumor weight change, dose: 250.0 mg/kg/injection, schedule: Q01DX001 (ip), vehicle: suspension in saline) 57 % of control.
With `C[C@@](O)(/C=C/[C@H]1CC=CC(=O)O1)[C@@H](C[C@@H](O)\C=C/C=C\C=C\CO)OP(=O)(O)O`, the T/C was 99 % of control (endpoint: median tumor weight change, dose: 15.62 mg/kg/injection, schedule: Q01DX001 (ip), vehicle: other); 83 % of control (endpoint: median tumor weight change, dose: 31.25 mg/kg/injection, schedule: Q01DX001 (ip), vehicle: other); 42 % of control (endpoint: median tumor weight change, dose: 62.5 mg/kg/injection, schedule: Q01DX001 (ip), vehicle: other).
Consider `NC(=O)c1ncn2c(=O)n(CCCl)nnc12`, for which the T/C is, setting by setting: (endpoint: median tumor weight change, dose: 6.25 mg/kg/injection, schedule: Q01DX001 (ip), vehicle: suspension in saline) 69 % of control; (endpoint: median tumor weight change, dose: 12.5 mg/kg/injection, schedule: Q01DX001 (ip), vehicle: suspension in saline) 76 % of control; (endpoint: median tumor weight change, dose: 25.0 mg/kg/injection, schedule: Q01DX001 (ip), vehicle: suspension in saline) 45 % of control; (endpoint: median tumor weight change, dose: 50.0 mg/kg/injection, schedule: Q01DX001 (ip), vehicle: suspension in saline) 41 % of control and 46 % of control.
On to `CN(C=O)C(C(=O)Nc1cccc2c(OC(=O)C(N(C)C=O)(N(C)C=O)N(C)C=O)c(N=Nc3ccc(S(=O)(=O)Nc4nccs4)cc3)cc(N=Nc3ccc(S(=O)(=O)Nc4nccs4)cc3)c12)(N(C)C=O)N(C)C=O` (tested in a mixture with another compound), for which the T/C under setting [5] was 100 % of control; the T/C (endpoint: median tumor weight change, dose: 1000.0 mg/kg/injection, schedule: Q01DX001 (ip), vehicle: saline with Tween-80) is 119 % of control; the T/C (endpoint: median tumor weight change, dose: 2000.0 mg/kg/injection, schedule: Q01DX001 (ip), vehicle: saline with Tween-80) is 63 % of control.
For the compound `CC(=O)Nc1ccc(S(=O)(=O)CO)cc1`, the T/C under setting [6] is 222 % of control and 77 % of control; the T/C under setting [7] was 174 % of control and 409 % of control; the T/C under setting [8] is 189 % of control and 268 % of control; the T/C under setting [9] is 211 % of control and 271 % of control; the T/C under setting [10] is 186 % of control and 403 % of control; the T/C (endpoint: median tumor weight (est.), dose: 400.0 mg/kg/injection, schedule: Q07DX005 (ip), vehicle: saline with Tween-80) is 165 % of control and 281 % of control.
Turning to `COc1ccc2c(c1)CCn1c(C)c(COC(=O)NC(C)C)c(COC(=O)NC(C)C)c1-2`, the T/C is 107 % of control (endpoint: median tumor weight change, dose: 15.62 mg/kg/injection, schedule: Q01DX001 (ip), vehicle: distilled water + Tween-80); 106 % of control (endpoint: median tumor weight change, dose: 31.0 mg/kg/injection, schedule: Q01DX001 (ip), vehicle: distilled water + Tween-80); 109 % of control and 114 % of control (endpoint: median tumor weight change, dose: 31.25 mg/kg/injection, schedule: Q01DX001 (ip), vehicle: distilled water + Tween-80); 58 % of control (endpoint: median tumor weight change, dose: 62.0 mg/kg/injection, schedule: Q01DX001 (ip), vehicle: distilled water + Tween-80); 26 % of control (endpoint: median tumor weight change, dose: 250.0 mg/kg/injection, schedule: Q01DX001 (ip), vehicle: distilled water + Tween-80).
Regarding `Oc1cc2ccccc2c(-c2c(O)c(O)cc3ccccc23)c1O`, the T/C was 67 % of control under setting [7], 55 % of control under setting [9] and 109 % of control under setting [10].
Turning to `O.O.[NH-]C1CCCCC1[NH-].[Pt+2]` (configuration not stated), the T/C (endpoint: median tumor weight (est.), dose: 0.62 mg/kg/injection, schedule: Q07DX005 (ip), vehicle: dextrose) is 50 % of control; the T/C (endpoint: median tumor weight (est.), dose: 20.0 mg/kg/injection, schedule: Q07DX005 (ip), vehicle: dextrose) was 69 % of control; the T/C (endpoint: median tumor weight (est.), dose: 40.0 mg/kg/injection, schedule: Q07DX005 (ip), vehicle: dextrose) is 39 % of control.
In the case of `Nc1nc(-c2cccc3ccccc23)cc2ccccc12`, the T/C by setting is: under setting [8], 53 % of control; under setting [9], 81 % of control; under setting [10], 37 % of control.
For the compound `COc1cc2cc3cc4cc(OC)c(OC)cc4c(C)[n+]3cc2cc1OC` (tested in a mixture with another compound), the T/C (endpoint: median tumor weight (est.), dose: 12.5 mg/kg/injection, schedule: Q07DX005 (ip), vehicle: saline) is 68 % of control; the T/C (endpoint: median tumor weight (est.), dose: 25.0 mg/kg/injection, schedule: Q07DX005 (ip), vehicle: saline) was 88 % of control; the T/C (endpoint: median tumor weight (est.), dose: 50.0 mg/kg/injection, schedule: Q07DX005 (ip), vehicle: saline) was 82 % of control; the T/C (endpoint: median tumor weight (est.), dose: 100.0 mg/kg/injection, schedule: Q07DX005 (ip), vehicle: saline) is 90 % of control; the T/C (endpoint: median tumor weight (est.), dose: 200.0 mg/kg/injection, schedule: Q07DX005 (ip), vehicle: saline) is 39 % of control.
Turning to `Nc1nc(N)c2c(Cl)c(CNc3ccc(Cl)c(Cl)c3)ccc2n1`, the T/C is, setting by setting: (endpoint: median tumor weight (est.), dose: 6.25 mg/kg/injection, schedule: Q07DX005 (ip), vehicle: saline with Tween-80) 55 % of control; under setting [6], 78 % of control; under setting [7], 82 % of control; under setting [8], 8 % of control; under setting [9], 27 % of control.
`O=C1CC2(C(=O)N1CN1CCCCC1)c1ccccc1-c1ccccc12`: the T/C under setting [1] was 99 % of control; the T/C under setting [2] was 71 % of control; the T/C under setting [3] is 85 % of control; the T/C (endpoint: median tumor weight (est.), dose: 200.0 mg/kg/injection, schedule: Q07DX005 (ip), vehicle: Klucel (hydroxypropylcellulose) (HPC)) is 62 % of control; the T/C under setting [4] is 21 % of control.
Consider `CO[C@@H]1[C@H](O)CC[C@]2(CO2)[C@H]1[C@@]1(C)O[C@@H]1CC=C(C)C`, for which the T/C (endpoint: median tumor weight change, dose: 31.25 mg/kg/injection, schedule: Q01DX001 (ip), vehicle: saline with Tween-80) was 113 % of control; the T/C (endpoint: median tumor weight change, dose: 62.5 mg/kg/injection, schedule: Q01DX001 (ip), vehicle: saline with Tween-80) is 100 % of control; the T/C (endpoint: median tumor weight change, dose: 125.0 mg/kg/injection, schedule: Q01DX001 (ip), vehicle: saline with Tween-80) is 106 % of control; the T/C under setting [5] is 110 % of control.
